Assay results as given in patent publication EP4603105A1, “PHARMACEUTICAL COMPOSITION CONTAINING CYCLIC COMPOUND HAVING SELECTIVE KRAS INHIBITORY EFFECT AGAINST HRAS AND NRAS” (CHUGAI SEIYAKU KABUSHIKI KAISHA, priority 2022, dated 2024).

Key:
[1] = molecular target: HRAS wild-type protein (Homo sapiens, UniProt P01112); assay: Binding to HRAS by surface plasmon resonance (SPR), KD and KD ratio to KRAS; conditions: ratio of KD value for HRAS wild-type protein to KD value for KRAS (SPR)
Summary of the method: (§1)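 GDP-bound biotin-Avi RAS captured at ~100–300 RU, 30°C, pH 7.4 HBS containing 10 µM GDP, 10 mM MgCl2, 1 mM DTT, 0.01% Tween 20 and 4% DMSO. KD by 1:1 fitting.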

[2] = molecular target: GDP-bound NRAS wild-type protein (Homo sapiens, UniProt P01111); assay: Binding to NRAS by surface plasmon resonance (SPR), KD and KD ratio to KRAS; conditions: ratio of KD value for GDP-bound NRAS wild-type protein to KD value for KRAS (SPR)
Summary of the method: as §1

[3] = system: human lung cancer strain NCI-H441; format: cell-based
Summary of the method: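 Readout: […] after the ATP-based reagent. Compound: serial dilutions in dimethyl sulfoxide.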

Chain of GDP-bound NRAS wild-type protein (P01111 whole entry): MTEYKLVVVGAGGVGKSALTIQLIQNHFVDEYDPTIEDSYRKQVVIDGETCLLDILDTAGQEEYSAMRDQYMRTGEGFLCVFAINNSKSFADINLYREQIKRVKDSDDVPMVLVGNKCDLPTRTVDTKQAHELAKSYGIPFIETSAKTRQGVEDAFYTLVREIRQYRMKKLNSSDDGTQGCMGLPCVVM
Chain of HRAS wild-type protein (P01112 whole entry): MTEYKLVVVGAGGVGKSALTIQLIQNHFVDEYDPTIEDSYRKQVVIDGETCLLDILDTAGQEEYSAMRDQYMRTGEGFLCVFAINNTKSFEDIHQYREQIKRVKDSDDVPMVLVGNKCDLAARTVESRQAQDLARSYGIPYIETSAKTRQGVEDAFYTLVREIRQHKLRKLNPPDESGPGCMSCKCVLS

| SMILES | HRAS /KRAS [1] | NRAS /KRAS [2] | IC50 [3] [nM] |
| --- | --- | --- | --- |
| CCO[C@@H]1C[C@H]2C(=O)NC3(CC(C)(C)C3)C(=O)N(C)[C@@H](C3CCCC3)C(=O)N(C)[C@H](C(=O)N(C)C)CC(=O)N(C)[C@@H](CC(C)C)C(=O)N[C@@H]([C@@H](C)CC)C(=O)N(C)CC(=O)N(C)[C@H]3C/C=C\CCN(C3=O)[C@@H](Cc3ccc(C(F)(F)F)cc3)C(=O)N(C)CC(=O)N[C@@H](CCc3cc(F)c(C(F)(F)F)c(F)c3)C(=O)N2C1 [PP1650] | A (a compound having 10 or more and less than 20 is denoted as A) | A (a compound having 10 or more and less than 20 is denoted as A) | 1.2 |
| CCO[C@@H]1C[C@H]2C(=O)NC3(CC(C)(C)C3)C(=O)N(C)[C@@H](C3CCCC3)C(=O)N(C)[C@H](C(=O)N(C)C)CC(=O)N(C)[C@@H](CC3CCC3)C(=O)N[C@@H]([C@@H](C)CC)C(=O)N(C)CC(=O)N(C)[C@H]3C/C=C\CCN(C3=O)[C@@H](Cc3ccc(C(F)(F)F)cc3)C(=O)N(C)CC(=O)N[C@@H](CCc3cc(F)c(C(F)(F)F)c(F)c3)C(=O)N2C1 [PP1651] | B (a compound having 3 or more and less than 10 is denoted as B) | A (a compound having 10 or more and less than 20 is denoted as A) | 2.3 |
| CCO[C@@H]1C[C@H]2C(=O)NC3(CC(C)(C)C3)C(=O)N(C)[C@@H](C3CCCC3)C(=O)N(C)[C@H](C(=O)N(C)CC)CC(=O)N(C)[C@@H](CC)C(=O)N[C@@H]([C@@H](C)CC)C(=O)N(C)CC(=O)N(C)[C@H]3C/C=C\CCN(C3=O)[C@@H](Cc3ccc(C(F)(F)F)cc3)C(=O)N(C)CC(=O)N[C@@H](CCc3ccc(C(F)(F)F)c(OC)c3)C(=O)N2C1 [PP1653] | A (a compound having 10 or more and less than 20 is denoted as A) | A (a compound having 10 or more and less than 20 is denoted as A) | 1.6 |
| CCO[C@@H]1C[C@H]2C(=O)NC3(CC(C)(C)C3)C(=O)N(C)[C@@H](C3CCCC3)C(=O)N(C)[C@H](C(=O)N(C)CC)CC(=O)N(C)[C@@H](CC(F)F)C(=O)N[C@@H]([C@@H](C)CC)C(=O)N(C)CC(=O)N(C)[C@H]3C/C=C\CCN(C3=O)[C@@H](Cc3ccc(C(F)(F)F)cc3)C(=O)N(C)CC(=O)N[C@@H](CCc3ccc(C(F)(F)F)c(OC)c3)C(=O)N2C1 [PP1655] | A (a compound having 10 or more and less than 20 is denoted as A) | A (a compound having 10 or more and less than 20 is denoted as A) | 1.6 |
| CCCN(C)C(=O)[C@@H]1CC(=O)N(C)[C@@H](COC)C(=O)N[C@@H]([C@@H](C)CC)C(=O)N(C)CC(=O)N(C)[C@H]2C/C=C\CCN(C2=O)[C@@H](Cc2ccc(C(F)(F)F)cc2)C(=O)N(C)CC(=O)N[C@@H](CCc2ccc(C(F)(F)F)c(OC)c2)C(=O)N2C[C@H](OCC)C[C@H]2C(=O)NC2(CC(C)(C)C2)C(=O)N(C)[C@@H](C2CCCC2)C(=O)N1C [PP1656] | A (a compound having 10 or more and less than 20 is denoted as A) | AA (a compound having 20 or more is denoted as AA) | 1.5 |
| CCCOC[C@H]1C(=O)N[C@@H]([C@@H](C)CC)C(=O)N(C)CC(=O)N(C)[C@H]2C/C=C\CCN(C2=O)[C@@H](Cc2ccc(C(F)(F)F)cc2)C(=O)N(C)CC(=O)N[C@@H](CCc2ccc(C(F)(F)F)c(OC)c2)C(=O)N2C[C@H](OCC)C[C@H]2C(=O)NC2(CC(C)(C)C2)C(=O)N(C)[C@@H](C2CCCC2)C(=O)N(C)[C@H](C(=O)N(C)C)CC(=O)N1C [PP1657] | B (a compound having 3 or more and less than 10 is denoted as B) | A (a compound having 10 or more and less than 20 is denoted as A) | 2 |
| CC[C@H](C)[C@@H]1NC(=O)[C@H](CC(F)F)N(C)C(=O)C[C@@H](C(=O)N(C)C)N(C)C(=O)[C@H](C2CCCC2)N(C)C(=O)C2(CC(C)(C)C2)NC(=O)[C@@H]2C[C@H](C)CN2C(=O)[C@H](CCc2cc(F)c(C(F)(F)F)c(F)c2)NC(=O)CN(C)C(=O)[C@H](Cc2ccc(C(F)(F)F)cc2)N2CC/C=C\C[C@@H](C2=O)N(C)C(=O)CN(C)C1=O [PP1658] | A (a compound having 10 or more and less than 20 is denoted as A) | A (a compound having 10 or more and less than 20 is denoted as A) | 3.8 |
| CCCC[C@H]1C(=O)N[C@@H]([C@@H](C)CC)C(=O)N(C)CC(=O)N(C)[C@H]2C/C=C\CCN(C2=O)[C@@H](Cc2ccc(C(F)(F)F)cc2)C(=O)N(C)CC(=O)N[C@@H](CCc2cc(F)c(C(F)(F)F)c(F)c2)C(=O)N2C[C@@H](C)C[C@H]2C(=O)NC2(CC(C)(C)C2)C(=O)N(C)[C@@H](C2CCCC2)C(=O)N(C)[C@H](C(=O)N(C)C)CC(=O)N1C [PP1661] | A (a compound having 10 or more and less than 20 is denoted as A) | A (a compound having 10 or more and less than 20 is denoted as A) | 5.7 |
| CC[C@H](C)[C@@H]1NC(=O)[C@H](CC(C)C)N(C)C(=O)C[C@@H](C(=O)N(C)C)N(C)C(=O)[C@H](C2CCCC2)N(C)C(=O)C2(CC(C)(C)C2)NC(=O)[C@@H]2C[C@H](C)CN2C(=O)[C@H](CCc2cc(F)c(C(F)(F)F)c(F)c2)NC(=O)CN(C)C(=O)[C@H](Cc2ccc(C(F)(F)F)cc2)N2CC/C=C\C[C@@H](C2=O)N(C)C(=O)CN(C)C1=O [PP1662] | B (a compound having 3 or more and less than 10 is denoted as B) | A (a compound having 10 or more and less than 20 is denoted as A) | 6.4 |
| CCCN(C)C(=O)[C@@H]1CC(=O)N(C)[C@@H](C)C(=O)N[C@@H]([C@@H](C)CC)C(=O)N(C)CC(=O)N(C)[C@H]2C/C=C\CCN(C2=O)[C@@H](Cc2ccc(C(F)(F)F)cc2)C(=O)N(C)CC(=O)N[C@@H](CCc2cc(F)c(C(F)(F)F)c(F)c2)C(=O)N2C[C@H](F)C[C@H]2C(=O)NC2(CC(C)(C)C2)C(=O)N(C)[C@@H](C2CCCC2)C(=O)N1C [PP1663] | A (a compound having 10 or more and less than 20 is denoted as A) | AA (a compound having 20 or more is denoted as AA) | 3.6 |
| CCCN(C)C(=O)[C@@H]1CC(=O)N(C)[C@@H](CC2CC2)C(=O)N[C@@H]([C@@H](C)CC)C(=O)N(C)CC(=O)N(C)[C@H]2C/C=C\CCN(C2=O)[C@@H](Cc2ccc(C(F)(F)F)cc2)C(=O)N(C)CC(=O)N[C@@H](CCc2cc(F)c(C(F)(F)F)c(F)c2)C(=O)N2C[C@H](F)C[C@H]2C(=O)NC2(CC(C)(C)C2)C(=O)N(C)[C@@H](C2CCCC2)C(=O)N1C [PP1665] | A (a compound having 10 or more and less than 20 is denoted as A) | AA (a compound having 20 or more is denoted as AA) | 3.1 |
| CCCN(C)C(=O)[C@@H]1CC(=O)N(C)[C@@H](C)C(=O)N[C@@H]([C@@H](C)CC)C(=O)N(C)CC(=O)N(C)[C@H]2C/C=C\CCN(C2=O)[C@@H](Cc2ccc(C(F)(F)F)cc2)C(=O)N(C)CC(=O)N[C@@H](CCc2cc(F)c(C(F)(F)F)c(F)c2)C(=O)N2C[C@H](OCC)C[C@H]2C(=O)NC2(CCC2)C(=O)N(C)[C@@H](C2CCCC2)C(=O)N1C [PP1666] | A (a compound having 10 or more and less than 20 is denoted as A) | A (a compound having 10 or more and less than 20 is denoted as A) | 8.1 |
